Assay results: PMC6648289 (ACS Omega, 2019)

Assays:
Assay in all cases: FLIPR membrane potential
Assay type in all cases: cell-based
Details in all cases: concentration used for PAM testing
[1] = biological target: T1, human α1β2δ GABAA receptor (Homo sapiens, UniProt O14764+P14867+P47870)
T1 sequence (P14867 28-456): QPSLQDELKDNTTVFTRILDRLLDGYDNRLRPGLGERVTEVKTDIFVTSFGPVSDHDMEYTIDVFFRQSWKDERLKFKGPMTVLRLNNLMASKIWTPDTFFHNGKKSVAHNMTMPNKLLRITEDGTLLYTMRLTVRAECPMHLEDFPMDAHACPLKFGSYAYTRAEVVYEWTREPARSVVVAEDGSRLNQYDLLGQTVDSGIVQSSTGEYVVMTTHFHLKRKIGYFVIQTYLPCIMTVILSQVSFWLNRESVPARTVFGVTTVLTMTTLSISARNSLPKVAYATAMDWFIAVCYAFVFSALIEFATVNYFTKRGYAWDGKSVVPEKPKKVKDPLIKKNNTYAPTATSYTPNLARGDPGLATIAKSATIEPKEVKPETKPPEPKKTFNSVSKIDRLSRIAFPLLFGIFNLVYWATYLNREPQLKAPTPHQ
T1 sequence (P47870 25-512 limits assumed): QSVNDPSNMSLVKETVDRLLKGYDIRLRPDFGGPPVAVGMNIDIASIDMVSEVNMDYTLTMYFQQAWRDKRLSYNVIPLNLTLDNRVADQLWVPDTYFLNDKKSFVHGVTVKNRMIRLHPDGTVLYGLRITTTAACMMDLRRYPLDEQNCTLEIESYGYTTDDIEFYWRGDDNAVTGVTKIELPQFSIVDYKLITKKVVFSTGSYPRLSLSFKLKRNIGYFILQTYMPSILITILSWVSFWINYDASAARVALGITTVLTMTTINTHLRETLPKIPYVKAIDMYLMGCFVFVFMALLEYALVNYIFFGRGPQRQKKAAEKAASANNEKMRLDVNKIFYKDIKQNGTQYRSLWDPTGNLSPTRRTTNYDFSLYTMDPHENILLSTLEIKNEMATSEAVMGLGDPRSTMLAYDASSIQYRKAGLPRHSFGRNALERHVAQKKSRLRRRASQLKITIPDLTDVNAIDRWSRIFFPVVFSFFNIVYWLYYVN
T1 sequence (O14764 17-452 limits assumed): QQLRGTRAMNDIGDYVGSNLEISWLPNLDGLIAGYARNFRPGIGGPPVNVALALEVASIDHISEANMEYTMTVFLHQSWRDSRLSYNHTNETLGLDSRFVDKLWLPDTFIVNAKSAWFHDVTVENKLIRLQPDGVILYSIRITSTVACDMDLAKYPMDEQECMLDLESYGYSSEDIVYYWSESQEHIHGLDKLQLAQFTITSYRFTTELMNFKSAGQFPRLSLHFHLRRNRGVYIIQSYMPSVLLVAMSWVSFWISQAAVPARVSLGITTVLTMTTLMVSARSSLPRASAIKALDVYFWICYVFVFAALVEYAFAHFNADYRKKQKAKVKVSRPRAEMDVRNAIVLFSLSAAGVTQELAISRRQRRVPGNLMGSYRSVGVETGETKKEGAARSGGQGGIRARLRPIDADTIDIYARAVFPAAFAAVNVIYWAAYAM

[2] = biological target: human α4β2δ GABAA receptor (Homo sapiens, UniProt O14764+P47870+P48169)
[3] = biological target: human α6β2δ GABAA receptor (Homo sapiens, UniProt O14764+P47870+Q16445)
[4] = biological target: human α6β2γ2s GABAA receptor (Homo sapiens, UniProt P18507+P47870+Q16445)
Chain of human α6β2γ2s GABAA receptor (Q16445 20-453, one chain of several): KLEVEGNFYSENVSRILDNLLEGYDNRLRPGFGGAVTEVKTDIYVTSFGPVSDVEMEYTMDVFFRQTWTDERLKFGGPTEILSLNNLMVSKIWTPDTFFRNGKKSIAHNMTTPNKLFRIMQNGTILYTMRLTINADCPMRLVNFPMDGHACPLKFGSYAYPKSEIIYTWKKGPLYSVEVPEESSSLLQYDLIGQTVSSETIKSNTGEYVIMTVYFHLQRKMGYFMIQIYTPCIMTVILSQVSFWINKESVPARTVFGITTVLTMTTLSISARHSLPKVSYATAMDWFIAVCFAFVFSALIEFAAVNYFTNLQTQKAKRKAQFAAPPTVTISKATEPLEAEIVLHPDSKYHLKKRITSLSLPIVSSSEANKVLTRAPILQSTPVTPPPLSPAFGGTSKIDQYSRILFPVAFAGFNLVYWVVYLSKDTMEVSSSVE
Chain of human α6β2γ2s GABAA receptor (P18507 40-467 isoform P18507-1 limits assumed, one chain of several): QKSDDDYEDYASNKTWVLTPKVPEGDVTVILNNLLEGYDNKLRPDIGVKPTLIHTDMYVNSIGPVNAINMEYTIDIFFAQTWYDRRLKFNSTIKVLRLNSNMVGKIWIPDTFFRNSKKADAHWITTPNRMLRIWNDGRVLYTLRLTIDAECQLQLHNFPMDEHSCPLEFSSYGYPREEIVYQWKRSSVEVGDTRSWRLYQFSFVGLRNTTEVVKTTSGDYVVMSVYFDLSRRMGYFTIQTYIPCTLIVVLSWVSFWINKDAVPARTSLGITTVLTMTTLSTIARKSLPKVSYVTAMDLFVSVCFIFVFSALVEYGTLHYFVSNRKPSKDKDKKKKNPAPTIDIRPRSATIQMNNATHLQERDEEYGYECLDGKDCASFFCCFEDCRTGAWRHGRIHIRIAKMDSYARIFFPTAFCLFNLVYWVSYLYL

Chain of human α4β2δ GABAA receptor (P48169 36-554, one chain of several): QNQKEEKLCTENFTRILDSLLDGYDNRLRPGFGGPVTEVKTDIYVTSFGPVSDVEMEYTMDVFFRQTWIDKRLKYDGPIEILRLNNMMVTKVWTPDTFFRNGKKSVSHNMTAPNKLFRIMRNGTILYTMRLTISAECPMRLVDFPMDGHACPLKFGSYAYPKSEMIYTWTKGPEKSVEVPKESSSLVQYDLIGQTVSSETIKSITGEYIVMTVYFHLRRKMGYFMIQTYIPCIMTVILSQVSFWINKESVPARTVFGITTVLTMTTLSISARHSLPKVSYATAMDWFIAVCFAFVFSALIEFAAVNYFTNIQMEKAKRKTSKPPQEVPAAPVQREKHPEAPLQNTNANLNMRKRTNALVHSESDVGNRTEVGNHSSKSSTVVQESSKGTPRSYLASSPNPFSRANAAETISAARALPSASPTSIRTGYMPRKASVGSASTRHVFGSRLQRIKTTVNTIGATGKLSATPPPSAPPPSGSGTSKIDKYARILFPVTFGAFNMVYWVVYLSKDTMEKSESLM
Chain of human α6β2δ GABAA receptor (Q16445 20-453, one chain of several): as the sequence (Q16445 20-453, one chain of several) above

Structure (SMILES): NCCCC(=O)O [GABA, γ-Aminobutyric acid]
- GABA EC20 [1]: 1600 to 2000 nM
- GABA EC20 [2]: 80 nM
- GABA EC20 [3]: 50 nM
- GABA EC20 [4]: 100 to 200 nM
